Source: patent US8871728B2, “Non-peptide macrocyclic histone deacetylese (HDAC) inhibitors and methods of making and using thereof” (Georgia Tech Research Corporation, priority 2007, dated 2014)
In brackets after ≈: the same amount, converted by molar mass. Several values for one entry are separate records, joined by “and”; a condition that tells them apart may be missing. Equal values may be shown once. Read-outs that look alike come from different tables or passages of the source.

Columns and labels:
[1] = tested on: promastigote stage of L. donovani; experiment: Antileishmanial Alamar blue fluorometric assay; assay type: cell-based; details: promastigotes
Protocol: (§1) The compounds described herein were also evaluated for parasitic activity against Plasmodium falciparum and Leismania donovani. P. falciparum and L. donovani are the causative parasites of malaria and leishmaniasis, two human diseases which constitute a serious threat to public health in tropical and sub-tropical countries. Antimalarial activity was evaluated in vitro using chloroquine-sensitive (D6, Sierra Leone) and chloroquine-resistant (W2, Indochina) strains of P. falciparum. Antileishmanial activity was evaluated in vitro against the promastigote stage of L. donovani.
(§2) Plasmodium growth inhibition was determined by a parasite lactate dehydrogenase assay using Malstat reagent. Inhibition of viability of the promastigote stage of L. donovani was determined using standard Alamar blue assay, modified to a fluorometric assay.
as §1, with “Macrocyclic histone deacetylase inhibitors” for “The compounds described herein”, “were” for “were also”
as §2

[2] = tested on: Plasmodium falciparum (D6 clone), chloroquine-sensitive; experiment: Plasmodium growth inhibition, parasite lactate dehydrogenase assay (Malstat); assay type: cell-based; details: for IC50: Plasmodium falciparum; for Plasmodium falciparum (D6 clone) IC50: chloroquine-sensitive
Protocol: as §1, §2
as §1, with “Macrocyclic histone deacetylase inhibitors” for “The compounds described herein”, “were” for “were also”
as §2

[3] = tested on: Plasmodium falciparum (W2 clone), chloroquine-resistant; experiment: as above; assay type: cell-based; details: for IC50: Plasmodium falciparum; for Plasmodium falciparum (W2 clone) IC50: chloroquine-resistant
Protocol: as §1, §2
as §1, with “Macrocyclic histone deacetylase inhibitors” for “The compounds described herein”, “were” for “were also”
as §2

[4] = tested on: HeLa nuclear extract HDAC1/2; experiment: Fluor de Lys HDAC inhibition, HeLa nuclear extract; assay type: biochemical, human
Text: Fluor de Lys™ is a fluorescence based HDAC activity assay comprising a combination of fluorogenic Histone deAcetylase Lysyl substrate and a developer. The kit is a highly sensitive and convenient alternative to radiolabeled, acetylated histones or peptide/HPLC methods for the assay of histone deacetylases. This assay is based on the ability of HeLa nuclear extract, which is enriched in HDAC activity, to mediate the deacetylation of the acetylated lysine side chain of the Fluor de Lys substrate. The assay procedure requires two steps. First, incubation of the HeLa nuclear extract with the Fluor de Lys substrate results in substrate deacetylation and thus sensitizes it to the second step. In the second step, treatment of the deacetylated substrate with the Fluor de Lys developer produces a fluorophore. The substrate-developer reaction, under normal circumstances goes to completion in less than 1 min at 25° C. The kit used was the Fluorimetric Assay/Drug Discovery Kit—AK-500 Manual Fluorescent Assay System available from BIOMOL® International, Plymouth Meeting, Pa.
Each IC50 value was obtained by averaging three independent experiments.

HDAC8 [5] = biological target: T1, HDAC8 (Homo sapiens (Human), UniProt Q9BY41); experiment: Fluor de Lys HDAC8 inhibition; assay type: biochemical; details: average of three independent experiments; Table 4; read-out: HDAC 8
HDAC6 = HDAC6 (Homo sapiens (Human), UniProt Q9UBN7); experiment: SAMDI mass spectrometry HDAC inhibition assay; assay type: biochemical; details: for HDAC6 inhibition, symbol / IC50: SAMDI; for inhibition at 10 µM: read-out: HDAC6 % inhibition; for IC50: read-out: HDAC6 IC50
Protocol: (§3) There is precedence that fluorescently labeled substrates can perturb enzyme activity and the effect of inhibitors. […] Additionally, 3-hydroxypyridine-2-ones are highly colored solids and might lead to false positive signals. Mindful of these facts, a label-free SAMDI (self-assembled monolayers for MALDI) mass spectrometry assay was also used to assess HDAC inhibition.
The SAMDI technique, wherein self-assembled monolayers (SAM) of alkanethiolates on gold are analyzed by matrix assisted laser desorption/ionization (MALDI) mass spectrometry, has been widely used to characterize many biochemical activities, including the deacetylase enzyme family. The SAMDI assay was used to measure the inhibition constant (K1) of fragments against HDAC1, HDAC6 and HDAC8 using a previously identified preferred HDAC substrate.

HDAC8 [6] = biological target: T1, HDAC8; experiment: SAMDI mass spectrometry HDAC inhibition assay; assay type: biochemical; details: for inhibition at 10 µM / HDAC8 % inhibition: given if the IC50 was above 10 μM, at 10 μM; for HDAC8 inhibition, symbol / IC50: SAMDI; for IC50: read-out: HDAC8 IC50
Protocol: as §3
(§4) The SAMDI technique, wherein self-assembled monolayers (SAM) of alkanethiolates on gold are analyzed by matrix assisted laser desorption/ionization (MALDI) mass spectrometry, has been widely used to characterize many biochemical activities, including the deacetylase enzyme family.

HDAC1 = HDAC1 (Homo sapiens (Human), UniProt Q13547); experiment: SAMDI mass spectrometry HDAC inhibition assay; assay type: biochemical; details: at 10 μM, given if the IC50 was above 10 μM
Protocol: as §3, §4

[7] = D6, chloroquine-sensitive, read-out: Plasmodium falciparum (D6 clone) IC50
[8] = W2, chloroquine-resistant, read-out: Plasmodium falciparum (W2 clone) IC50
[9] = HeLa nuclear extract, average of three independent experiments, Table 4, read-out: HDAC ½

T1 sequence (Q9BY41 whole entry): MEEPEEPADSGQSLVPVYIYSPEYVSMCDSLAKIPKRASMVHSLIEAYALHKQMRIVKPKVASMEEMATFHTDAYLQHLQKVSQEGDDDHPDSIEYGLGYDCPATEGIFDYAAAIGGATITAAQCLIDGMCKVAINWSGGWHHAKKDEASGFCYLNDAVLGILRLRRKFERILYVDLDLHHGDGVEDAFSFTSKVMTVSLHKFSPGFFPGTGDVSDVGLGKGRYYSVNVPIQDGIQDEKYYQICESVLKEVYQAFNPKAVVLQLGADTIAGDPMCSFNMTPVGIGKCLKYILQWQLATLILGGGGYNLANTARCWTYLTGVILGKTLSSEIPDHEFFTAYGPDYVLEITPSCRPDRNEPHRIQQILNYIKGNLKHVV
Sequence of HDAC6 (Q9UBN7 whole entry): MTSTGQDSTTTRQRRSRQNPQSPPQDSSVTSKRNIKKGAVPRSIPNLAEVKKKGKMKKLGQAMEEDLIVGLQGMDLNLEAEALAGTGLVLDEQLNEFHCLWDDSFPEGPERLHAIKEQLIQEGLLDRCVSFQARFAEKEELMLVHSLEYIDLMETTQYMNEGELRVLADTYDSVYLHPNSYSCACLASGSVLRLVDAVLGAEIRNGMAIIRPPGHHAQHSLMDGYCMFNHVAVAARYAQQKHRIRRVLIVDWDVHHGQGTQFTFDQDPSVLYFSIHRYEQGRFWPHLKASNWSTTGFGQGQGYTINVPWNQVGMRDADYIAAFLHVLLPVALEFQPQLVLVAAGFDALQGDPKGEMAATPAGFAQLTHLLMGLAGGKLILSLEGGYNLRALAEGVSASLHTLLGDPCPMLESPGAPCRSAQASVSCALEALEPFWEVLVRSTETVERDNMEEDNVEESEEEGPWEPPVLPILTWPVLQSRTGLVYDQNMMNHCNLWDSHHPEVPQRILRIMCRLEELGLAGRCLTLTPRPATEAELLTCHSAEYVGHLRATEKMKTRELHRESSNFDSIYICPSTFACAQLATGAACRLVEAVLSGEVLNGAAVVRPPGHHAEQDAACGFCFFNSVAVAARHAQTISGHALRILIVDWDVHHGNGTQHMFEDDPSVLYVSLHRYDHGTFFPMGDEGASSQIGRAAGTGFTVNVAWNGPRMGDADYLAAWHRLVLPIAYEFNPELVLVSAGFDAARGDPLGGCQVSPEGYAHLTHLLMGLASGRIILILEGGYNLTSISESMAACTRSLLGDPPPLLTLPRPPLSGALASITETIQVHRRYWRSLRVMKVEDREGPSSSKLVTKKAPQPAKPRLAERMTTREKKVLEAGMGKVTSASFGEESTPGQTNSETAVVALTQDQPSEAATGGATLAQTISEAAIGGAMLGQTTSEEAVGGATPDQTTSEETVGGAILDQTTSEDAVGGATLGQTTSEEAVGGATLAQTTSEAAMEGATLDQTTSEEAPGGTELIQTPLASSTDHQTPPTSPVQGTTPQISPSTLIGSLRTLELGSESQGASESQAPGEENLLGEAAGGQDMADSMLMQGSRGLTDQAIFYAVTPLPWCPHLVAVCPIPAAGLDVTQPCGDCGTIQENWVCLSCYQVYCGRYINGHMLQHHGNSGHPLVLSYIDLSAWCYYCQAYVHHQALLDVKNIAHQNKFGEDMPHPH
Sequence of HDAC1 (Q13547 whole entry): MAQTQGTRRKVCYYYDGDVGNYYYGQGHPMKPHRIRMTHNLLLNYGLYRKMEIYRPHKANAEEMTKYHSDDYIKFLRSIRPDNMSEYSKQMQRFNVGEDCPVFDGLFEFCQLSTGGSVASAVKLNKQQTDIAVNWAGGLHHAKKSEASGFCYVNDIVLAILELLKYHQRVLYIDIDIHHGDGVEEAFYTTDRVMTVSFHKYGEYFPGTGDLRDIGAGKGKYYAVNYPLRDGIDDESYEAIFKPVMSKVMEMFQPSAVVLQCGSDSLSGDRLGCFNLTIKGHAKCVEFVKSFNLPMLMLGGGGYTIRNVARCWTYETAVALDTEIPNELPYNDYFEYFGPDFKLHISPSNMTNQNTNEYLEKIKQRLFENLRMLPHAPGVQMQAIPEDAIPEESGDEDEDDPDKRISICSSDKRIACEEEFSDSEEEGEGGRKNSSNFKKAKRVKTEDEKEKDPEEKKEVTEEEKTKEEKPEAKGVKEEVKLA

C[C@@H]1[C@H](O)[C@@H](C)/C=C/C=C/C=C/C=C/C=C/C=C/C=C/[C@H](O[C@@H]2O[C@H](C)[C@@H](O)[C@H](N)[C@@H]2O)C[C@@H]2O[C@](O)(C[C@@H](O)C[C@@H](O)[C@H](O)CC[C@@H](O)C[C@@H](O)CC(=O)O[C@H]1C)C[C@H](O)[C@H]2C(=O)O [Amphotericine B, Amphotericin B, reference compound]
Antileshmanial activity IC90 [1]: 0.32 µg/mL and 0.3 µg/mL

C[C@@H]1CC[C@H]2[C@@H](C)C(=O)O[C@@H]3O[C@@]4(C)CC[C@@H]1[C@]32OO4 [Artemisinin, artemisinin, reference compound]
IC50 [2, 7]: 0.004 µg/mL (≈ 0.0142 µM)
Plasmodium falciparum (D6 clone) IC50 [2]: 0.006 µg/mL
IC50 [3, 8]: 0.006 µg/mL (≈ 0.0213 µM)
Plasmodium falciparum (W2 clone) IC50 [3]: 0.009 µg/mL

CCN(CC)CCCC(C)Nc1ccnc2cc(Cl)ccc12 (stereo not drawn) [Chloroquine, chloroquine, reference compound]
IC50 ([2]; D6, read-out: Plasmodium falciparum (D6 clone) IC50 (μg/ml), chloroquine-sensitive): 0.017 µg/mL (≈ 0.0531 µM)
Plasmodium falciparum (D6 clone) IC50 [2]: 0.011 µg/mL
IC50 ([3]; W2, read-out: Plasmodium falciparum (W2 clone) IC50 (μg/ml), chloroquine-resistant): 0.125 µg/mL (≈ 0.391 µM)
Plasmodium falciparum (W2 clone) IC50 [3]: 0.14 µg/mL

C=C1C[C@H](CC)C(C)(C)[C@H](C)[C@@H](C)N(C)C[C@H](C)CC(C)(C)[C@H](C[C@@H]2C[C@H](C)C[C@H](N(C)Cc3ccc(C(C)C)cc3)[C@H]2C)[C@@H](C)[C@H](C)[C@H]1C [Compd 4]
IC50 ([4]; Table 8, read-out: HDAC Inhibition IC50): 88.8 nM
IC50 [2, 7]: 1.3 µg/mL (≈ 1.88 µM)
S.I. D6 ([2]; selective toxicity index, Vero versus D6): > 3.7
IC50 [3, 8]: 1.7 µg/mL (≈ 2.46 µM)
S.I. (W2) ([3]; selective toxicity index, Vero versus W2, value in brackets): > 2.8

CC[C@H]1OC(=O)[C@H](C)[C@@H](O[C@H]2C[C@@](C)(OC)[C@@H](O)[C@H](C)O2)[C@H](C)[C@@H](O[C@@H]2O[C@H](C)C[C@H](N(C)Cc3ccc(-c4cn(CCCCCCCCCC(=O)NO)nn4)cc3)[C@H]2O)[C@](C)(OC)C[C@@H](C)C(=O)[C@H](C)[C@@H](O)[C@]1(C)O [Compound 30, Clarithromycin-N-Phenyltriazolyldecahydroxamic acid]
IC50 [4, 9]: 223 nM

CC[C@H]1OC(=O)[C@H](C)[C@@H](O[C@H]2C[C@@](C)(OC)[C@@H](O)[C@H](C)O2)[C@H](C)[C@@H](O[C@@H]2O[C@H](C)C[C@H](N(C)Cc3ccc(NC(=O)CCCCCCC(=O)NO)cc3)[C@H]2O)[C@](C)(O)C[C@@H](C)CN(C)[C@H](C)[C@@H](O)[C@]1(C)O [Compound 36, Azithromycin-arylalkyl hydroxamic acid]
IC50 [4, 9]: 107 nM
IC50 (HDAC8 [5]): 6680 nM

CC[C@H]1OC(=O)[C@H](C)[C@@H](O)[C@H](C)[C@@H](O[C@@H]2O[C@H](C)C[C@H](N(C)Cc3ccc(NC(=O)CCCCCCC(=O)NO)cc3)[C@H]2O)[C@](C)(O)C[C@@H](C)CN(C)[C@H](C)[C@@H](O)[C@]1(C)O [Compound 38, Desclasinose-azithromycin-arylalkyl hydroxamic acid]
IC50 [4, 9]: 110 nM
IC50 (HDAC8 [5]): 2320 nM

O=c1c(O)cccn1CCn1cc(-c2ccccc2)nn1 [Compound 159a, 1-Phenyltriazolylethyl-3-hydroxypyridine-2-one]
HDAC6 inhibition, symbol (HDAC6): NI (No significant Inhibition (below 20% Inhibition))
inhibition at 10 µM (HDAC8 [6]): 15%
inhibition at 10 µM (HDAC1): 12%

O=c1c(O)cccn1CCCn1cc(-c2ccccc2)nn1 [Compound 159b, 1-Phenyltriazolylpropyl-3-hydroxypyridine-2-one]
inhibition at 10 µM (HDAC6): 41%
inhibition at 10 µM (HDAC8 [6]): 47%
inhibition at 10 µM (HDAC1): 8%

O=c1c(O)cccn1CCCCn1cc(-c2ccccc2)nn1 [Compound 159c, 1-Phenyltriazolylbutyl-3-hydroxypyridine-2-one]
HDAC6 inhibition, symbol (HDAC6): NI (No significant Inhibition (below 20% Inhibition))
HDAC8 % inhibition (HDAC8 [6]): 5%
inhibition at 10 µM (HDAC8 [6]): 10%
HDAC1 % inhibition (HDAC1): 12%
inhibition at 10 µM (HDAC1): 15%

O=c1c(O)cccn1CCCCCn1cc(-c2ccccc2)nn1 [Compound 159d, 1-Phenyltriazolylpentyl-3-hydroxypyridine-2-one]
HDAC6 inhibition, symbol (HDAC6): NI (No significant Inhibition (below 20% Inhibition))
HDAC8 % inhibition (HDAC8 [6]): 30%
HDAC1 % inhibition (HDAC1): 43%

O=c1c(O)cccn1CCCCCCCn1cc(-c2ccccc2)nn1 [Compound 159f, 1-Phenyltriazolylheptyl-3-hydroxypyridine-2-one]
HDAC6 % inhibition (HDAC6; at 10 μM, given if the IC50 was above 10 μM): 34%
HDAC8 % inhibition (HDAC8 [6]): 42%
HDAC1 % inhibition (HDAC1): 2%

Oc1cccn(CCn2cc(-c3ccccc3)nn2)c1=S [Compound 161, 1-Phenyltriazolylethyl-3-hydroxypyridine-2-thione]
inhibition at 10 µM (HDAC6): 14%
inhibition at 10 µM (HDAC8 [6]): 56%
inhibition at 10 µM (HDAC1): 21%

Cc1ccc(-c2cn(CCCCCn3cccc(O)c3=O)nn2)cc1 [Compound 166a, 1-(4-Tolyl)triazolylpentyl-3-hydroxypyridine-2-one]
HDAC6 inhibition, symbol (HDAC6): NI (No significant Inhibition (below 20% Inhibition))
inhibition at 10 µM (HDAC8 [6]): 15%
inhibition at 10 µM (HDAC1): 66%

Cc1cccc(-c2cn(CCCCCn3cccc(O)c3=O)nn2)c1 [Compound 166b, 1-(3-Tolyl)triazolylpentyl-3-hydroxypyridine-2-one]
HDAC6 inhibition, symbol (HDAC6): NI (No significant Inhibition (below 20% Inhibition))
HDAC8 inhibition, symbol (HDAC8 [6]): NI (No significant Inhibition (below 20% Inhibition))
inhibition at 10 µM (HDAC1): 88%

N#Cc1ccc(-c2cn(CCCCCn3cccc(O)c3=O)nn2)cc1 [Compound 166d, 1-(4-Benzonitrile)triazolylpentyl-3-hydroxypyridine-2-one]
HDAC6 inhibition, symbol (HDAC6): NI (No significant Inhibition (below 20% Inhibition))
inhibition at 10 µM (HDAC8 [6]): 26%
inhibition at 10 µM (HDAC1): 70%

N#Cc1cccc(-c2cn(CCCCCn3cccc(O)c3=O)nn2)c1 [Compound 166e, 1-(3-Benzonitrile)triazolylpentyl-3-hydroxypyridine-2-one]
HDAC6 inhibition, symbol (HDAC6): NI (No significant Inhibition (below 20% Inhibition))
HDAC8 inhibition, symbol (HDAC8 [6]): NI (No significant Inhibition (below 20% Inhibition))
inhibition at 10 µM (HDAC1): 71%

CN(C)c1ccc(-c2cn(CCCCCn3cccc(O)c3=O)nn2)cc1 [Compound 166f, 1-(4-(N,N-dimethylaniline))triazolylpentyl-3-hydroxypyridine-2-one]
HDAC6 inhibition, symbol (HDAC6): NI (No significant Inhibition (below 20% Inhibition))
inhibition at 10 µM (HDAC8 [6]): 28%
inhibition at 10 µM (HDAC1): 59%

N#Cc1ccc(-c2cn(CCCCCn3cccc(O)c3=O)nn2)cc1C(F)(F)F [Compound 166g, 1-(4-(3-Trifluomethyl)-benzonitrile)triazolylpentyl-3-hydroxypyridine-2-one]
HDAC6 inhibition, symbol (HDAC6): NI (No significant Inhibition (below 20% Inhibition))
inhibition at 10 µM (HDAC8 [6]): 14%
inhibition at 10 µM (HDAC1): 71%

N#Cc1ccc(-c2cn(CCCCCn3cccc(O)c3=S)nn2)cc1 [Compound 167d, 1-(4-Benzonitrile)triazolylpentyl-3-hydroxypyridine-2-thione]
IC50 (HDAC6): 905 ± 249 nM
IC50 (HDAC8 [6]): 1460 nM
inhibition at 10 µM (HDAC1): 33%

CN(C)c1ccc(-c2cn(CCCCCn3cccc(O)c3=S)nn2)cc1 [Compound 167f]
IC50 (HDAC6): 1010 ± 425 nM
IC50 (HDAC8 [6]): 1480 nM
inhibition at 10 µM (HDAC1): 28%

N#Cc1ccc(-c2cn(CCCCCn3cccc(O)c3=S)nn2)cc1C(F)(F)F [Compound 167g, 1-(4-(3-Trifluomethyl)-benzonitrile)triazolylpentyl-3-hydroxypyridine-2-thione]
IC50 (HDAC6): 661 ± 121 nM
IC50 (HDAC8 [6]): 2260 nM
inhibition at 10 µM (HDAC1): 55%
